The source of these data is patent US12391670B2, “Functionalized aminotriazines” (LEADXPRO AG, priority 2018, dated 2025).

For assay [1], the target named is human A2A receptor (Homo sapiens (Human), UniProt P29274). In words: Radioligand binding competition assay, [3H]-NECA, membranes from HEK293 cells transfected with human A2A receptor. To be noted: for Human A2A Receptor pKi / IC50: radioligand binding. On the procedure: (§1) For all four adenosine receptors (A1, A2A, A2B and A3) filtration binding assay was performed. Radioligand binding competition assay was done in duplicates in the wells of a 96-well plate (Master Block, Greiner, 786201) containing binding buffer, receptor membrane extracts, a fixed concentration of tracer and test compound at increasing concentrations. In order to eliminate effect of buffer components, binding buffer was the same for all four receptors and contained: 50 mM Tris-HCl pH 7.4, 5 mM MgCl2, 1 mM EDTA, 150 mM NaCl, 0.1% Na-azide, and 5 U/ml adenosine-deaminase. Nonspecific binding was determined by co-incubation with 200-fold excess of cold competitor. In all radioligand binding experiments, the samples were incubated in a final volume of 0.1 ml for 60 minutes at 25° C. and then filtered over Unifilter plates (Perkin Elmer) pre-treated for 2 hours to limit tracer non-specific binding. Filters were washed five times with 0.5 ml of ice-cold washing buffer (50 mM Tris-HCl pH 7.4, 5 mM MgCl2, 1 mM EDTA) and 50 μl of Microscint 20 (Perkin Elmer) were added to each filter. The plates are incubated 15 min at room temperature on an orbital shaker and then counted with a TopCount™ for 1 min/well.
Chain of human A2A receptor (P29274 whole entry): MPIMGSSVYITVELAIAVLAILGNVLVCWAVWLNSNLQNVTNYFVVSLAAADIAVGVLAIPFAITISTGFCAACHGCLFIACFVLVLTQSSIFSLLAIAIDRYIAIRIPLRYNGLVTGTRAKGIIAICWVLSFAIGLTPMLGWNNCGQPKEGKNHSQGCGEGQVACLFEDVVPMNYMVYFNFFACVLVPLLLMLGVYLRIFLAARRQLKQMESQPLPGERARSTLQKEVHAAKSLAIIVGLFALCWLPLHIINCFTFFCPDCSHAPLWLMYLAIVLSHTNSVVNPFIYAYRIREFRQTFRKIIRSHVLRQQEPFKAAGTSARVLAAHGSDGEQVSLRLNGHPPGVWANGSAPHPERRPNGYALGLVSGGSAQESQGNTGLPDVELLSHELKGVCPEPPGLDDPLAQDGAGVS
For A2A receptor the assay was performed with [^3H]-NECA and membranes from HEK293 cells transfected with human A2A receptor (Euroscreen FAST-002B).

Assay [2] has as its target A2B receptors endogenously expressed in HEK293 cells (Homo sapiens (Human), UniProt P29275). In words: cAMP assay (a), HEK293 cells with A2B receptors endogenously expressed. Format: cell-based. To be noted: stimulated with 5 μM NECA. On the procedure: (§2) Two assays have been employed, one using HEK293 with A2B receptors endogenously expressed (named cAMP assay (a) in the following) and a second one using HEK293 cells impressing recombinant human A2B receptors (named cAMP assay (b) in the following)
Real-time cAMP-assays in live cells were performed in HEK293 cells stably expressing the EPAC-sensor (I. Vedel, et al., 2015, J. Biomol. Screen. 20, 849-857).
In order to test for cAMP inhibition by preferred compounds of formula I and antagonists, respectively, from this invention, endogenous A2A and A2B expression in above cell lines was exploited. To run the assay, cells were incubated in 80 μl assay buffer for 15 minutes at room temperature. The assay buffer was composed of Hanks Balanced Salt Solution (Gibco) with 20 mM HEPES, pH 7.4 and […] adenosine-deaminase. All cAMP assays were run at room temperature using a PHERAstar FSX plate reader. The FRET donor (mCerulean) was excited at 430 nm. Fluorescence emission was measured at 480 nm and 530 nm for 65 minutes (cycle time 1.45 min). Prior to stimulation fluorescence was measured for 10 min (baseline). Subsequently cells were stimulated with 5 μM NECA (5′-(N-Ethylcarboxamido)adenosine; Tocris, Cat.-No:35920-39-9). Sharply 10.15 min after stimulation the compounds were added at increasing concentrations (between 0 and 200 μM) and fluorescence was recorded for 40 min. Each compound concentration was measured in duplicates.

Assay [3] concerns the target human thermostabilised A2B receptor. Nature of the assay: Wave Guided Interferometry (WGI). Format: binding. The note with it: 1:1 interaction model. The procedure:
Biophysical Assays: A2B and A2A receptors used for biophysical measurements were produced using baculovirus mediated expression in insect cells. Expression constructs for both receptors contained point mutations that increased receptor thermal stability. Thermostabilised A2B and A2A receptors were solubilized using mild detergents (DDM and DM, respectively) and purified by standard purification methods. A2B receptor was purified in the buffer containing: 40 mM Tris-HCl pH 7.4, 200 mM NaCl, 0.05% DDM, and 0.005% CHS. A2A receptor was purified in the buffer containing: 40 mM Tris-HCl pH 7.4, 200 mM NaCl, 0.15% DM, and 0.002% CHS.
WGI experiments with A2B receptor were performed using the Wave delta instrument (Creoptix AG), a label free surface biosensor. Purified A2B protein was immobilized on 4PCP-N chips (Creoptix, quasi planar NTA functionalized polycarboxylate surface) at typical levels between […]. Running buffer was 25 mM Tris-HCl pH 7.5, 350 mM NaCl, 0.1% DDM, and 2% DMSO. The procedure started with 40 start-up cycles in order to equilibrate and stabilize the surface. Once start-up cycles were performed, different concentrations of compounds (diluted in running buffer, and adjusted depending on the kinetic characteristics) were injected in a multi cycle kinetic mode with typical association time of 120 s and dissociation time of 240 s. A DMSO calibration (typically 5 concentrations between 1 and 3% DMSO) was performed for every experiment in order to calibrate DMSO levels as well as to estimate the missing volume taken by the protein on the chip. Data were evaluated with Creoptix Wave software (Creoptix AG). All final signals are double referenced with injections of same compound concentrations on a reference channel and with buffer injections on the active channel (where protein is immobilized) and fitted with a 1:1 interaction model in order to obtain KD values.

In assay [4] the target is human A1 receptor (Homo sapiens (Human), UniProt P30542). Nature of the assay: Radioligand binding competition assay, [3H]-DPCPX, membranes from CHO-K1 cells transfected with human A1 receptor. On the procedure:
as §1
For A1 receptor the assay was performed with [^3H]-DPCPX and membranes from CHO-K1 cells transfected with human A1 receptor (Euroscreen FAST-00B).

Assay [5] has as its target T1, human A2B receptor (Homo sapiens (Human), UniProt P29275). In words: Radioligand binding competition assay, [3H]-DPCPX, membranes from HEK293 cells transfected with human A2B receptor. The procedure: as §1
For A2B, the assay was carried with [^3H]-DPCPX and membranes prepared from HEK293 cells transfected with human A2B receptor (Euroscreen FAST-003B).

The target of assay [6] is T1, human A2B receptor. In words: cAMP assay (b), HEK293 cells expressing recombinant human A2B receptor. Format: cell-based. The note with it: reference agonist at EC80, read-out: cAMP pIC50 (converted). The procedure: as §2
Dose response curves were performed in parallel with the reference compounds. 12 μl of cells were mixed with 6 μl of the test compound at increasing concentrations and then incubated 10 min. Thereafter 6 μl of the reference agonist was added at a final concentration corresponding to the historical EC80. The plates were then incubated for 30 min at room temperature. After addition of the lysis buffer and 1 hour incubation, cAMP concentrations were estimated, according to the manufacturer specification, with the HTRF kit.
(Cyclic AMP is a second messenger, typically raised through Gs and lowered through Gi signalling.)

Assay [7] deals with human A3 receptor (Homo sapiens (Human), UniProt P0DMS8). In words: Radioligand binding competition assay, [125I]-MECA, membranes from CHO-K1 cells transfected with human A3 receptor. The procedure:
as §1
For A3, the assay was carried out with [^125I]-MECA and membranes from CHO-K1 cells transfected with human A3 receptor (Euroscreen FAST-004B).

The mark [8] stands for this setting: read-out: cAMP pIC50 (converted).

Read-outs that look alike come from different tables or passages of the source.

Chain of human A1 receptor (P30542 whole entry): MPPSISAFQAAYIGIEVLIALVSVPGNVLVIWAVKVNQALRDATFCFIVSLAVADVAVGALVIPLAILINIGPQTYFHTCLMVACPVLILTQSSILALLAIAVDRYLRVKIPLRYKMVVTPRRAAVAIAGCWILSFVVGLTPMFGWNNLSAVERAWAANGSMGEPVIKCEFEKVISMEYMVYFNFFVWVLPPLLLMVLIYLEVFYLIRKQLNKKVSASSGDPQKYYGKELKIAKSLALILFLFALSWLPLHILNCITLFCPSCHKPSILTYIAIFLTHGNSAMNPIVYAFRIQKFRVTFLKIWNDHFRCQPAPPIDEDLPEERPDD
Chain of human A3 receptor (P0DMS8 whole entry): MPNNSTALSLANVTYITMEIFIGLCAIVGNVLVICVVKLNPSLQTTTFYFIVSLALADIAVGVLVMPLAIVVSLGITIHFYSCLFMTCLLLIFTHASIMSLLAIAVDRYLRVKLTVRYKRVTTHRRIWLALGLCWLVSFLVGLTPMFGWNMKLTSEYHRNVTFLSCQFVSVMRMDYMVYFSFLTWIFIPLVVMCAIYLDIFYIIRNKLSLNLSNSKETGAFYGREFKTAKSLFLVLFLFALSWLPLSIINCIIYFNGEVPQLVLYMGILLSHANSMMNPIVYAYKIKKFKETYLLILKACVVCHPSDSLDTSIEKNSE
T1 sequence (P29275 whole entry): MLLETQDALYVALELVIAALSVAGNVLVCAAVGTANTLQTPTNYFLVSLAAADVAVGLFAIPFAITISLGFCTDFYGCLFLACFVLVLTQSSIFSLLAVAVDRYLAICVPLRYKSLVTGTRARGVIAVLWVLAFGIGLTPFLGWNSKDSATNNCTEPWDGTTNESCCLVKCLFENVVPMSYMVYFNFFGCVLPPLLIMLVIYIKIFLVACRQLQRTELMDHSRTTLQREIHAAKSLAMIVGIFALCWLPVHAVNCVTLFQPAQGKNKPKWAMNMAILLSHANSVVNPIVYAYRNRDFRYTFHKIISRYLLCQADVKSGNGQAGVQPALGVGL
Chain of A2B receptors endogenously expressed in HEK293 cells (P29275 whole entry): as above

`Fc1cnccc1-c1nnc(Nc2cccnc2)nc1-c1cccnc1` [Example 1, 6-(3-fluoropyridin-4-yl)-N,5-di(pyridin-3-yl)-1,2,4-triazin-3-amine]: the “Human A2A Receptor pKi” value in assay [1] worked out at 4.73. Also, the IC50 is 18500 nM in assay [1]; 400 nM in assay [2]; 398 nM in assay [2] (setting [8]); 19000 nM in assay [4]; 320 nM in assay [5]. Binding in assay [3] was characterised by a dissociation constant (Kd) of 500 nM. Also, in assay [4], the “Human A1 Receptor pKi” value amounted to 5.02. Moreover, the “Human A2B Receptor pKi” value in assay [5] is 6.55.

Regarding `Fc1cccc(Nc2nnc(-c3ccncc3F)c(-c3cccnc3)n2)c1` [Example 2, N-(3-fluorophenyl)-6-(3-fluoropyridin-4-yl)-5-(pyridin-3-yl)-1,2,4-triazin-3-amine], in assay [1], the “Human A2A Receptor pKi” value was 4.9. Also, the IC50 in assay [1] was 12700 nM; in assay [2], 630 nM; in assay [2] (setting [8]), 631 nM; in assay [4] it was 7440 nM; in assay [5], 120 nM. Further, the Kd (in general, the concentration at which binding is half-saturated) in assay [3] is 1000 nM. For the same compound, the “Human A1 Receptor pKi” value in assay [4] was 5.43. In addition, in assay [5], the “Human A2B Receptor pKi” value stood at 6.99.

Regarding `OCc1ncc(Nc2nnc(-c3ccncc3F)c(-c3ccccc3F)n2)cn1` [Example 39, (5-{[5-(2-fluorophenyl)-6-(3-fluoropyridin-4-yl)-1,2,4-triazin-3-yl]amino}pyrimidin-2-yl)methanol], the “Human A2A Receptor pKi” value in assay [1] is 5.66. For the same compound, in assay [6], the IC50 was 41.7 nM. In assay [4], the “Human A1 Receptor pKi” value is reported as 6.19. For the same compound, in assay [7], the “Human A3 Receptor pKi” value worked out at 6.52. The “Human A2B Receptor pKi” value in assay [5] is given as 7.76.

As to `Fc1cnccc1-c1nnc(Nc2nc(C3CC3)n[nH]2)nc1-c1ccccc1F` [Example 31, N-(3-cyclopropyl-1H-1,2,4-triazol-5-yl)-5-(2-fluorophenyl)-6-(3-fluoro-4-pyridyl)-1,2,4-triazin-3-amine], the IC50 in assay [6] was 275 nM. For the same compound, in assay [4], the “Human A1 Receptor pKi” value amounted to 5.00. Also, in assay [5], the “Human A2B Receptor pKi” value is given as 7.27.

Consider `Fc1cnccc1-c1nnc(Nc2nc(Cl)cs2)nc1-c1cccnc1` [Example 4, 4-chloro-N-(6-(3-fluoropyridin-4-yl)-5-(pyridin-3-yl)-1,2,4-triazin-3-yl)thiazol-2-amine], for which, in assay [1], the “Human A2A Receptor pKi” value came out at 5.48 and the IC50 turned out to be 3280 nM. The Kd in assay [3] worked out at 1000 nM. In assay [5], the “Human A2B Receptor pKi” value is 6.5 and the IC50 worked out at 360 nM.

Turning to `Cc1cc(Nc2nnc(-c3ccncc3F)c(-c3ccccc3F)n2)[nH]n1` [Example 14, 5-(2-fluorophenyl)-6-(3-fluoropyridin-4-yl)-N-(3-methyl-1H-pyrazol-5-yl)-1,2,4-triazin-3-amine], in assay [1], the inhibition (in general, the share of the control response that was lost under treatment) at 50 µM was found to be 54% and the “Human A2A Receptor pKi” value is below 4.70. In addition, binding in assay [3] was characterised by a dissociation constant (Kd) of 240 nM. For the same compound, in assay [4], the “Human A1 Receptor pKi” value stood at 5.96 and the IC50 was 2200 nM. For the same compound, in assay [7], the “Human A3 Receptor pKi” value amounted to 4.68 and the IC50 was determined as 27100 nM. In assay [5], the “Human A2B Receptor pKi” value amounted to 6.93 and the IC50 was 460 nM.

`CC(C)(O)c1ccc(Nc2nnc(-c3ccncc3F)c(-c3ccccc3F)n2)cn1` [Example 38, 2-(5-{[5-(2-fluorophenyl)-6-(3-fluoropyridin-4-yl)-1,2,4-triazin-3-yl]amino}pyridin-2-yl)propan-2-ol]: the “Human A2A Receptor pKi” value in assay [1] is recorded as 5.84. Further, the IC50 in assay [6] was 50.1 nM. For the same compound, the “Human A1 Receptor pKi” value in assay [4] came to 6.26. Further, in assay [7], the “Human A3 Receptor pKi” value is reported as 6.42. The “Human A2B Receptor pKi” value in assay [5] was determined as 7.65.

Regarding `Fc1ccccc1-c1nc(Nc2cccnc2)nnc1-c1ccnc(C(F)(F)F)c1` [Example 8, 5-(2-fluorophenyl)-N-(pyridin-3-yl)-6-(2-(trifluoromethyl)pyridin-4-yl)-1,2,4-triazin-3-amine], the Kd in assay [3] was found to be 130 nM.

`Cc1nsc(Nc2nnc(-c3ccnc(C(F)(F)F)c3)c(-c3ccccc3F)n2)n1` [Example 11, N-(5-(2-fluorophenyl)-6-(2-(trifluoromethyl)pyridin-4-yl)-1,2,4-triazin-3-yl)-3-methyl-1,2,4-thiadiazol-5-amine]: the Kd in assay [3] is 470 nM.

For `CNC(=O)Nc1nnc(-c2ccncc2F)c(-c2ccccc2F)n1` [Example 16, 1-(5-(2-fluorophenyl)-6-(3-fluoropyridin-4-yl)-1,2,4-triazin-3-yl)-3-methylurea], in assay [1], the inhibition at 50 µM turned out to be 48% and the “Human A2A Receptor pKi” value is on record as below 4.70. Besides, binding in assay [3] was characterised by a dissociation constant (Kd) of 100 nM. Also, in assay [4], the “Human A1 Receptor pKi” value is recorded as 5.73 and the IC50 was found to be 3790 nM. In assay [7], the “Human A3 Receptor pKi” value is 5.14 and the IC50 was 9520 nM. In assay [5], the “Human A2B Receptor pKi” value is listed as 6.84 and the IC50 was found to be 160 nM.

As to `Cc1n[nH]c(Nc2nnc(-c3ccncc3F)c(-c3ccccc3F)n2)n1` [Example 15, 5-(2-fluorophenyl)-6-(3-fluoropyridin-4-yl)-N-(3-methyl-1H-1,2,4-triazol-5-yl)-1,2,4-triazin-3-amine], in assay [1], the “Human A2A Receptor pKi” value was 4.4 and the IC50 was found to be 39400 nM. In assay [3], this compound came in with a Kd of 120 nM. Moreover, the IC50 in assay [6] is 501 nM. Also, in assay [4], the “Human A1 Receptor pKi” value is recorded as 6.23 and the IC50 came out at 1180 nM. Further, in assay [7], the “Human A3 Receptor pKi” value is recorded as 4.48 and the IC50 came out at 43500 nM. In assay [5], the “Human A2B Receptor pKi” value is on record as 6.82 and the IC50 was 170 nM.
